Measurements taken from paper PMC7827085 (Pharmaceutics, 2021).

Tests used:
[1] = molecular target: ABCB1/MDR1/Pgp (Homo sapiens, UniProt P08183); experiment: in vitro; conditions: for Effect on ABCB1-dependent CaAM extrusion (in words): PLB-985/ABCB1 cells, test compounds 0.2–50 µM; for IC50 at 40 min: human
Experimental: (§1) For the ABC transporter assays, we used both cell-based and membrane-based functional assays. […] The respective transport activities were assayed by measuring the cellular fluorescence of the respective transported substrates Phengreen (ABCG2) and Calcein (ABCB1 and ABCC1).
(§2) The cells were kept on ice until the flow cytometry measurements. All experiments were performed in triplicate and in at least three biological parallels.
(§3) The cells were kept on ice until the flow cytometry measurements. All experiments were performed in triplicate and in at least three biological parallels. […] The PhenGreen (PG) or Calcein signal was detected in the BL1 channel (emission filter: 530/30 nm). Analysis of the data was carried out by the Attune Nxt Cytometer Software v3.1.2 (Thermo Fischer Scientific, Waltham, MA, USA). The inhibition of transporter activity was calculated by comparing the fluorescence in the presence of the test compound to that in the presence of a specific inhibitor providing maximum inhibition. […] Half-maximum inhibition (IC50) values were calculated by using the Origin2019 software (9.6.5.169, OriginLab Corporation, Northampton, MA, USA). […] In these experiments, we measured Hoechst dye extrusion in HeLa cells stably expressing eGFP and the ABCG2 variants driven by the same promoter—the transgenic cells generated by the Sleeping Beauty transposon system. […] For details, see Zámbó et al.). […] The maximum inhibition was defined for each variant as the fluorescence difference of the samples incubated with and without Ko143, respectively. […] Data analysis was performed using the Attune Nxt Cytometer Software v3.1.2. Two samples per condition and three biological replicates were examined in each experiment.
ABCB1 is a high-affinity active efflux transporter of the viability dye Calcein-AM (CaAM). […] Here, we applied this widely used cellular assay (see https://www.solvobiotech.com/services/categories/dye-efflux-assays) to characterize drug interactions of the applied compounds in intact PLB-985 cells, expressing high levels of the ABCB1 protein.

[2] = molecular target: T1, ABCG2/BCRP (Homo sapiens, UniProt Q9UNQ0); experiment: in vitro; conditions: for IC50 at 10 min: human
T1 sequence (Q9UNQ0 1-655): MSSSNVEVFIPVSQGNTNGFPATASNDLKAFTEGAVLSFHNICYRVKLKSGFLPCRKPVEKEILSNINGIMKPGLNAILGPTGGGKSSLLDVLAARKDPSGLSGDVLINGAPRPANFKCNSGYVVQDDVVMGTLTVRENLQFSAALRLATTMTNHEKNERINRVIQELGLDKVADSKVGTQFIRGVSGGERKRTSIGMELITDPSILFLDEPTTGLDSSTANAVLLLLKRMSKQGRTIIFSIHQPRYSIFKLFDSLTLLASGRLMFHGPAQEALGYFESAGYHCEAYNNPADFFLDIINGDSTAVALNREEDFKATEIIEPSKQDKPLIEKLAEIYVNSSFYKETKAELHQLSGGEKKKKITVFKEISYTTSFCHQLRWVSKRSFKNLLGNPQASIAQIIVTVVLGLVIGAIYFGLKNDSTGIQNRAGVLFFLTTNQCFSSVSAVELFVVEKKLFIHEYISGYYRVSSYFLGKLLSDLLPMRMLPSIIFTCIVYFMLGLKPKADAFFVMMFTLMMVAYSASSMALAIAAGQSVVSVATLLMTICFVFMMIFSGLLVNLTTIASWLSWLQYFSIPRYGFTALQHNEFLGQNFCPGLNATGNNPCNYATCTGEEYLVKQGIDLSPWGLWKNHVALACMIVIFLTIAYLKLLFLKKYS
Experimental: These were employed at 37 °C for 10 min (ABCG2), 1 min (ABCB1), or 3 min (ABCC1), with or without 4 mM Mg-ATP, in a 50 μL final volume. The known reference inhibitors of the transporters (1 µM Ko143 for ABCG2, 1 µM Valspodar for ABCB1, and 200 µM Benzbromarone for ABCC1) served as controls. Each test compound was dissolved in DMSO and a 1 µL volume was added to the samples. After incubation, the samples were filtered and washed, and the substrates in the vesicles were dissolved in 10% SDS and transferred onto another plate. After the addition of a stabilizer, the fluorescence was measured in plate readers (Victor X3 and Enspire Perkin-Elmer, Waltham, MA, USA), while the activity of the radiolabeled substrate was measured by liquid scintillation counting (Perkin Elmer MicroBeta2 liquid scintillation counter, Perkin Elmer, Waltham, MA, USA). ABC transporter-related vesicular transport was calculated by subtracting uptake measured in the presence of Mg-AMP from the values measured in the presence of Mg-ATP.
The effects of the test compounds on ABCG2 activity were also measured in a vesicular transport assay by using inverted membrane vesicles prepared from HEK-293 cells expressing high levels of the ABCG2 transporter.

[3] = molecular target: T2, ABCC1/MRP1 (Homo sapiens, UniProt P33527); conditions: Sf9/ABCC1 membrane vesicles
[4] = molecular target: T1, ABCG2/BCRP; experiment: in vitro; conditions: for Effect on ABCG2-dependent PG-DA extrusion (in words): PLB-985/ABCG2 cells; for IC50 at 40 min: human
Experimental: as §1, §3
Here, we used both PhenGreen-SK diacetate and Hst dye for these measurements. The PhenGreen (PG) assay is a recently patented method applied for ensuring an efficient ABCG2 transport measurement, as the non-fluorescent PhenGreen diacetate (PG-DA) is actively extruded by ABCG2 and the cellular fluorescence is correlated with ABCG2 transport activity. Therefore, we applied this assay to characterize the test drug interactions in intact PLB-985 cells expressing high levels of the ABCG2 protein. […] ABCG2 inhibition by the test compounds was estimated by their relative (%) inhibition compared to full inhibition by Ko143.

[5] = molecular target: T2, ABCC1/MRP1; experiment: in vitro; conditions: for Effect on ABCC1-dependent CaAM extrusion (in words): HL60/ABCC1 cells; for IC50 at 40 min: human
Experimental: as §1, §2, §3
Therefore, we applied this assay to characterize the test drug interactions in intact HL60 cells expressing high levels of the ABCC1 protein.

Chain of ABCB1/MDR1/Pgp (P08183 whole entry): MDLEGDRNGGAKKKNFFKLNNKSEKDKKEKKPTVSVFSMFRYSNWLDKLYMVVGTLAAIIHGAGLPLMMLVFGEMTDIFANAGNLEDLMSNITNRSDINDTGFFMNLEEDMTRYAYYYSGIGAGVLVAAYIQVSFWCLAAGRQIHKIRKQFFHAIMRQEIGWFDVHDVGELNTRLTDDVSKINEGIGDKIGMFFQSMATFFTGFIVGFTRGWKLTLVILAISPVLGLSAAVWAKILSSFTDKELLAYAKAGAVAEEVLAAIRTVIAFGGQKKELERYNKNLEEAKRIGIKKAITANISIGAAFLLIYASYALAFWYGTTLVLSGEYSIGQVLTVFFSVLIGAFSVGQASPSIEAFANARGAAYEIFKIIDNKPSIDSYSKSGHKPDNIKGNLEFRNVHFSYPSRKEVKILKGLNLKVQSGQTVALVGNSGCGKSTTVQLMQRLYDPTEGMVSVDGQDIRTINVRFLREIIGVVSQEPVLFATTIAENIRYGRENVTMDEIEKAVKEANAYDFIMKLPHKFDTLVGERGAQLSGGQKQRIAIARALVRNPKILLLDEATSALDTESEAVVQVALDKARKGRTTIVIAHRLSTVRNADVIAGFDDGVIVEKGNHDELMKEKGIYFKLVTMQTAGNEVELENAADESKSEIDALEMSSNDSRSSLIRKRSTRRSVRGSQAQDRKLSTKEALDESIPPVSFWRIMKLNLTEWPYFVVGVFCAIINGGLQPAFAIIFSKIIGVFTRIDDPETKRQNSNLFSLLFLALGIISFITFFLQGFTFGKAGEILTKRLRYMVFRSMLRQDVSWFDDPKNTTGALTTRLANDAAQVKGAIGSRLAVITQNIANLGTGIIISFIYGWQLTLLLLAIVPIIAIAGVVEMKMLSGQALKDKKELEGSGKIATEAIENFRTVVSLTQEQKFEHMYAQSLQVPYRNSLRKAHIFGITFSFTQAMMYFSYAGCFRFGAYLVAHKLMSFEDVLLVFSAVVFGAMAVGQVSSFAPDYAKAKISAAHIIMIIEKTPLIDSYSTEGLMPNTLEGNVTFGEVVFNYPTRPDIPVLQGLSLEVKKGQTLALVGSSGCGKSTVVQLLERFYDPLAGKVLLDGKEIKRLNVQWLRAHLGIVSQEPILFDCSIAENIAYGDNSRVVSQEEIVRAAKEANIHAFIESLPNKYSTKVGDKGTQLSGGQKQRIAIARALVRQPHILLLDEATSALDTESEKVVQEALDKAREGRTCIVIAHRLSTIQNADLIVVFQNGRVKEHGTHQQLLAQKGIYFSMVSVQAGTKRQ
T2 sequence (P33527 whole entry): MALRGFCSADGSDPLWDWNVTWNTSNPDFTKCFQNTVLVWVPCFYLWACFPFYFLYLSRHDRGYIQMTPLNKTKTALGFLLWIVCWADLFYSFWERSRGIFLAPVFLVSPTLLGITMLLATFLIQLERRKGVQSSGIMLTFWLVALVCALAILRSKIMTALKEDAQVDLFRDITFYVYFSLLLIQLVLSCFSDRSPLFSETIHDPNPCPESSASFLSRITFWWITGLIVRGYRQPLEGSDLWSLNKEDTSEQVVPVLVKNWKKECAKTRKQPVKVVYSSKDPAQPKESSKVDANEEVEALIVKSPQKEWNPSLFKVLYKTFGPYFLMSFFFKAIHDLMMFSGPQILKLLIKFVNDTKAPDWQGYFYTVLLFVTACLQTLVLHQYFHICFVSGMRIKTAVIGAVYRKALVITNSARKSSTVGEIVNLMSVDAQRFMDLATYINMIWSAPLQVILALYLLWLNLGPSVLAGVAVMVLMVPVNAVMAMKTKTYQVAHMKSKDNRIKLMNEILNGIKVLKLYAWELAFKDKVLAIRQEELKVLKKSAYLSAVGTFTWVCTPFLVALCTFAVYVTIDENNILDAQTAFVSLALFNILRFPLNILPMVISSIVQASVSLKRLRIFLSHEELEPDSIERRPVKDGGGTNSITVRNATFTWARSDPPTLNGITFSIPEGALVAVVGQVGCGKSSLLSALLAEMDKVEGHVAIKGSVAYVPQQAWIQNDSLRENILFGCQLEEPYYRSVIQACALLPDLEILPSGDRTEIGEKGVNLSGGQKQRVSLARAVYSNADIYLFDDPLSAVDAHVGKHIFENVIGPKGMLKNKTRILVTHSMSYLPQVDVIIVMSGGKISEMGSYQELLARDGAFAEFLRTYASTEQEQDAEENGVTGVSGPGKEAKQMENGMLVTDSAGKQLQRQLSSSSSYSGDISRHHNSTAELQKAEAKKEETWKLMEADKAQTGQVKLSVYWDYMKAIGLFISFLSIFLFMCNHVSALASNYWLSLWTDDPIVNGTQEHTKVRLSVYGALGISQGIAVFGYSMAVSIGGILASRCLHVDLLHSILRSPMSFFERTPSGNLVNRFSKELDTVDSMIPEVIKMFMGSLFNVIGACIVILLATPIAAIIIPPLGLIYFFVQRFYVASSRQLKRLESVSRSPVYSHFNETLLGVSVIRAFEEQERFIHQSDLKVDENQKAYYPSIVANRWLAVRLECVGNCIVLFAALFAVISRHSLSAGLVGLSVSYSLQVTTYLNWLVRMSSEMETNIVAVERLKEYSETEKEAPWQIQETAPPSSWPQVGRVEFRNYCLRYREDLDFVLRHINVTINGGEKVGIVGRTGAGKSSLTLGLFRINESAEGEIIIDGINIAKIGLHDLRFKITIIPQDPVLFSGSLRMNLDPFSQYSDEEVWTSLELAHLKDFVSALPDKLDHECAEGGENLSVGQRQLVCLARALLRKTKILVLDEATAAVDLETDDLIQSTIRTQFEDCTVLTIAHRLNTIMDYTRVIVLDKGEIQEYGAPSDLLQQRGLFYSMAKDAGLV

NC(=O)c1nc(F)c[nH]c1=O [favipiravir]
Effect on ABCB1-dependent CaAM extrusion (in words) [1]: did not significantly inhibit
IC50 at 40 min ([1]; intact PLB-985 cells expressing ABCB1, probe Calcein-AM, 0.25 µM): > 50 µM
IC50 at 10 min ([2]; probe lucifer yellow, 5 µM): > 50 µM
Effect on ABCC1 vesicular ETGB transport (in words) [3]: practically no effect
Effect on ABCG2-dependent PG-DA extrusion (in words) [4]: practically no effect
IC50 at 40 min ([4]; intact PLB-985 cells expressing ABCG2, probe PhenGreen-SK diacetate, 0.25 µM): > 50 µM
Effect on ABCC1-dependent CaAM extrusion (in words) [5]: did not significantly inhibit
IC50 at 40 min ([5]; intact HL60 cells expressing ABCC1, probe Calcein-AM, 0.25 µM): > 50 µM

CCN(CCO)CCCC(C)Nc1ccnc2cc(Cl)ccc12 (stereo not shown) [hydroxychloroquine]
Effect on ABCB1-dependent CaAM extrusion (in words) [1]: practically no effect
IC50 at 40 min [1]: > 50 µM
Effect on ABCG2 ATP-dependent LY uptake (in words) ([2]; HEK-293/ABCG2 membrane vesicles): practically no effect
IC50 at 10 min [2]: > 50 µM
Effect on ABCC1 vesicular ETGB transport (in words) [3]: practically no effect
Effect on ABCG2-dependent PG-DA extrusion (in words) [4]: practically no effect
IC50 at 40 min [4]: > 50 µM
Effect on ABCC1-dependent CaAM extrusion (in words) [5]: practically no effect
IC50 at 40 min [5]: > 50 µM

CCC(CC)COC(=O)[C@H](C)N[P@](=O)(OC[C@H]1O[C@@](C#N)(c2ccc3c(N)ncnn23)[C@H](O)[C@@H]1O)Oc1ccccc1 [remdesivir]
Effect on ABCB1-dependent CaAM extrusion (in words) [1]: did not significantly inhibit
IC50 at 40 min [1]: > 50 µM
IC50 [2]: > 20 µM
IC50 at 10 min [2]: > 50 µM
Concentration above which ABCC1 vesicular ETGB transport was stimulated [3]: above 25 μM
Effect on ABCC1 vesicular ETGB transport (in words) [3]: significantly stimulated
IC50 at 40 min [4]: > 50 µM
Effect on ABCC1-dependent CaAM extrusion (in words) [5]: did not significantly inhibit
